# Test results as given in patent publication US12397045B2, “Clostridioides difficile” (IMPERIAL COLLEGE OF SCIENCE, TECHNOLOGY AND MEDICINE, priority 2018, dated 2025).
# How the values were obtained:
# C. difficile = assay: Growth inhibition of C. difficile with 20 mM short or medium chain fatty acids; assay type: cell-based, Clostridioides difficile; conditions: 20 mM fatty acid
# Source text: Acetate is a C2 chain and they increase by one carbon until heptanoate is reached which is C7.
# The inventors assessed a range of short/medium chain fatty acids (S/MCFA).
# [1] = system: colonocyte cell line Caco2; assay: MTT viability assay of Caco2 cells; assay type: cell-based; conditions: 45 mM, 48 h
# Description: A higher OD value represents greater viability.
# The inventors determined to what extent the C5, C6 and C7 chain length fatty acids affect viability of the colonocyte cell line Caco2. Caco2 cells were grown until confluent in DMEM with serum and then trypsinised and diluted to 10^5 cells per ml and re-seeded into a 24 well plate and allowed to grow for a further 48 hours. At this point they were exposed to a 45 mM concentration of the SCFA or MCFA for 48 h and viability assessed using an MT assay.
# [2] = system: 6 strains of C. difficile; assay: Valerate inhibition of 6 strains of C. difficile (change in OD600); assay type: cell-based, Clostridioides difficile; conditions: 0, 5, 10, 20 mM valerate
# Source text: Error bars represent mean±SD. **p<0.01;[…] (ANOVA and Tukey post hoc test), N=12.
# As there are many strains of the C. difficile pathogen, the inventors extended the range of strains to determine how valerate inhibited growth (FIG. 32), and have also assessed the ability of valerate to target other species of bacteria (FIG. 33).
# CD012 = assay: Isovalerate inhibition of C. difficile growth; assay type: cell-based, Clostridioides difficile; conditions: strain CD012
# Source text: (§1) The inventors tested the ability of isovalerate to inhibit C. difficile growth (FIG. 36).
# CD010 = assay: Isovalerate inhibition of C. difficile growth; assay type: cell-based, Clostridioides difficile; conditions: strain CD010
# Source text: as §1
# Bacteroides uniformis = assay: Batch cultures of gut commensal with valerate (OD600); assay type: cell-based; conditions: only concentration that inhibited, p=0.026
# Description: (§2) Vegetative cells were inoculated into sBHI broth containing varying concentrations of valerate (o, 1, 2, 3, 4, 5, 10, and 20 mM) and OD600 measurements were taken at 0, 2, 4, 6, and 8 hours. The change in OD600 (from a time point during the exponential phase) was plotted against the concentrations of valerate tested. (a) C. difficile ribotype 010, (b) C. difficile ribotype 012, (c) C. difficile ribotype 027, (d) Bacteroides uniformis, (e) Bacteroides vulgatus, (f) Clostridium scindens. Error bars represent the mean standard deviation, * p<0.05, ** p<0.01, *** p<0.001.
# (§3) The inventors tested the effects of valerate (Fisher Scientific) on the vegetative growth of three C. difficile ribotypes (010, 012, and 027) as well as several gut commensal bacteria (Bacteroides uniformis, Bacteroides vulgatus, and Clostridium scindens). […] The inventors plotted the changes in OD600 (from a time point during the exponential phase) against each concentration of valerate tested. The inventors used ANOVA and Tukey post hoc test to determine whether the concentration of valerate tested affected the growth of the test isolate compared to batch cultures grown in the absence of valerate.
# (§4) C. difficile DS1684 (ribotype 010, non-toxigenic strain) was used for chemostat model experiments. C. difficile DS1684, C. difficile CD630 (ribotype 012, virulent multidrug resistant strain), C. difficile R20291 (ribotype 027, a hypervirulent strain), Bacteroides uniformis, Bacteroides vulgatus, and Clostridium scindens (DSM 5676) were used in batch culture experiments. C. difficile ribotype 027 is a common ribotype in Europe and North America,^1-3 while ribotype 012 is one of the common ribotypes in mainland China.^4,5 CD630 and R20291 are genetically and phenotypically well-characterised and are good representatives of their ribotypes.^6 B. uniformis and B. vulgatus were isolated from the stool of a healthy person using fastidious anaerobe agar (Lab M, Heywood, UK) or nutrient agar (Sigma-Aldrich, St. Louis, USA), respectively.
# Clostridium scindens = assay: as above; assay type: cell-based; conditions: 0-20 mM valerate tested, p>0.05
# Description: as §2, §3, §4
# Bacteroides vulgatus = assay: as above; assay type: cell-based
# Description: as §2, §3, §4
# [3] = system: C. difficile ribotype 012; assay: C. difficile batch cultures, vegetative growth with valerate (OD600); assay type: cell-based, Clostridioides difficile; conditions: sBHI broth pH 6.8, p=0.003
# Description: as §2, §3, §4
# [4] = system: C. difficile ribotype 027; assay: as above; assay type: cell-based, Clostridioides difficile; conditions: sBHI broth pH 6.8, p=0.008
# Description: as §2, §3, §4
# [5] = system: C. difficile ribotype 010; assay: as above; assay type: cell-based, Clostridioides difficile; conditions: sBHI broth pH 6.8, p=0.008
# Description: as §2, §3, §4
# gut organoids = conditions: 5 mM valerate; personal communication; cited from earlier work
# CD 027 = assay: Isovalerate inhibition of C. difficile growth; assay type: cell-based, Clostridioides difficile; conditions: strain CD 027
# Source text: as §1
SMILES,inhibition of C. difficile growth (C. difficile),potency at inhibiting growth relative to valerate (C. difficile),viability of colonocytes [1],inhibition of growth of C. difficile strains [2],inhibition of C. difficile growth (CD012),inhibition of C. difficile growth (CD010),valerate concentration inhibiting growth (Bacteroides uniformis) [mM],inhibition of growth by valerate (Clostridium scindens),inhibition of growth by valerate (Bacteroides vulgatus; 0-20 mM valerate tested),growth in broths containing valerate (Bacteroides vulgatus; 10 mM (p=0.020) or 20 mM (p=0.019) valerate),valerate concentration inhibiting vegetative growth [3] [mM],valerate concentration inhibiting vegetative growth [4] [mM],valerate concentration inhibiting vegetative growth [5] [mM],cell death / alterations in gene expression (gut organoids),viability of colonocytes ([1]; listed as C6),inhibition of C. difficile growth (CD 027)
"CCCCCCC(=O)O [heptanoate, heptanoic acid]",potent inhibitors,significantly more potent,do not significantly decrease,–,–,–,–,–,–,–,–,–,–,–,–,–
"CCCCC(=O)O [valerate, valeric acid]",potent inhibitors,–,do not significantly decrease,effective against all strains,inhibited to a greater extent,inhibited to a greater extent,20,not inhibited at any concentration,not inhibited at any concentration,grew better,2,2,4,did not result in cell death or cause significant alterations in gene expression,–,–
"CCCCCC(=O)O [hexanoate, hexanoic acid]",potent inhibitors,significantly more potent,significantly increased,–,–,–,–,–,–,–,–,–,–,–,do not significantly decrease,–
CC(C)CC(=O)O [isovalerate],–,–,–,–,significant ability to inhibit growth,significant ability to inhibit growth,–,–,–,–,–,–,–,–,–,comparable to valerate
